Strand notation (5' to 3'): a small letter for the sugar, then the base; units joined by * are phosphorothioate-linked, units joined directly phosphodiester-linked; [ ] holds rarer units or linkages, { } end groups; capitals alone tell only the bases. e = 2'-O-(2-methoxyethyl) (MOE); [5mC] = 5-methylcytosine; d = 2'-deoxy (DNA)
What was measured:
human PKK mRNA [1] = experiment: Antisense inhibition of human PKK mRNA in HepaRG cells, 5,000 nM (Example 2); assay type: cell-based
How it was run: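 HepaRG cells, 20,000 per well, were electroporated with 5,000 nM MOE gapmer (phosphorothioate, 5-methylcytosine) and incubated about 24 hours. PKK mRNA was quantified by qRT-PCR with primer probe set RTS3454, normalized to RIBOGREEN total RNA, and expressed as percent inhibition versus untreated controls.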

human PKK mRNA [2] = experiment: Dose-dependent antisense inhibition of human PKK in HepaRG cells, 0.19-5.00 uM (Example 5); assay type: cell-based
How it was run: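 HepaRG cells (20,000/well) were electroporated with antisense oligonucleotide at 0.19, 0.56, 1.67 and 5.00 μM and treated for about 16 hours. PKK mRNA was quantified by qRT-PCR with primer probe set RTS3454, normalised to RIBOGREEN total RNA, and IC50 was derived per oligonucleotide.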

[3] = Table 34, HepaRG, electroporation, ~16 h
[4] = Table 34, PKK mRNA, HepaRG, electroporation, ~16 h
[5] = human PKK mRNA in HepaRG cells, 5-10-5 gapmers, Table 14
[6] = HepaRG cells, electroporation, approximately 16 hours, Table 39
[7] = 4 point dose response, HepaRG cells, Table 39
[8] = HepaRG cells, electroporation, approximately 16 hours, Table 35
[9] = Table 9 experiment, HepaRG cells, 20,000 cells per well, electroporation with 5,000 nM antisense oligonucleotide, approx. 24 hours, PKK mRNA by RT-PCR (RTS3454), relative to untreated control cells
[10] = Table 10 experiment, HepaRG cells, 20,000 cells per well, electroporation with 5,000 nM antisense oligonucleotide, approx. 24 hours, PKK mRNA by RT-PCR (RTS3454), relative to untreated control cells
[11] = HepaRG cells, electroporation, approximately 16 hours, Table 37
[12] = 4 point dose response, HepaRG cells, Table 37

For “547564 (e[5mC]*e[5mC]*e[5mC]*eT*e[5mC]*dT*dG*dT*d[5mC]*dT*dT*dA*dG*dA*dT*eG*eT*e[5mC]*e[5mC]*eA; antisense) [compound 547564]”, which “% inhibition” value (human PKK mRNA [1]; Table 13, human PKK mRNA in HepaRG cells, 5-10-5 gapmers) is on record?
The value was 94%.

And the “percent inhibition of PKK at 5.00 μM” value (human PKK mRNA [2]; HepaRG cells, electroporation, approximately 16 hours, Table 41)?
Its value is 97%.

What about the “percent inhibition of PKK at 0.19 0μM” value (human PKK mRNA [2]; 0.19 0μM, HepaRG cells, electroporation, approximately 16 hours, Table 41) of the same substance?
The value was 46%.

What about the “percent inhibition of PKK at 0.56 0μM” value (human PKK mRNA [2]; 0.56 0μM, HepaRG cells, electroporation, approximately 16 hours, Table 41) of the same substance?
Its value is 66%.

What about the “percent inhibition of PKK at 1.67 1μM” value (human PKK mRNA [2]; 1.67 1μM, HepaRG cells, electroporation, approximately 16 hours, Table 41) of the same substance?
Its value is 90%.

And the IC50 (human PKK mRNA [2]; 4 point dose response, HepaRG cells, Table 41)?
The IC50 was 200 nM.

And the “percent inhibition of PKK at 0.19 μM” value (human PKK mRNA [2]; [3])?
Its value is 51%.

And the “percent inhibition of PKK at 0.56 μM” value (human PKK mRNA [2]; [3])?
The value was 48%.

And the “percent inhibition of PKK at 1.67 μM” value (human PKK mRNA [2]; [3])?
Its value is 82%.

What about the “percent inhibition of PKK at 5.00 μM” value (human PKK mRNA [2]; [3]) of the same substance?
Its value is 90%.

What about the IC50 (human PKK mRNA [2]; [4]) of the same substance?
Its IC50 is 200 nM.

Which “% inhibition” value (human PKK mRNA [1]; [5]) does the source give for “547616 (antisense eT*eG*eT*e[5mC]*e[5mC]*dT*dA*dT*dA*dT*d[5mC]*dA*d[5mC]*dT*dG*eT*eA*e[5mC]*e[5mC]*eT) [compound 547616]” here?
The value was 86%.

What about the “percent inhibition of PKK at 0.19 μM” value (human PKK mRNA [2]; [6]) of the same substance?
Its value is 26%.

And the “percent inhibition of PKK at 0.56 μM” value (human PKK mRNA [2]; [6])?
Its value is 50%.

What about the “percent inhibition of PKK at 1.67 μM” value (human PKK mRNA [2]; [6]) of the same substance?
Its value is 72%.

And the “percent inhibition of PKK at 5.00 μM” value (human PKK mRNA [2]; [6])?
The value was 89%.

What about the IC50 (human PKK mRNA [2]; [7]) of the same substance?
The IC50 was 600 nM.

“546255 (e[5mC]*eT*eT*eT*eG*dT*dG*d[5mC]*dA*dA*dG*dT*d[5mC]*dT*d[5mC]*eT*eT*eG*eG*e[5mC]; antisense) [compound 546255]” was tested. Which “% inhibition” value (human PKK mRNA [1]; Table 8, HepaRG cells, electroporation with 5,000 nM antisense oligonucleotide, approx. 24 hours, PKK mRNA by RT-PCR (RTS3454), relative to untreated control cells) did it give?
The value was 92%.

What about the “percent inhibition of PKK at 0.19 μM” value (human PKK mRNA [2]; [8]) of the same substance?
The value was 32%.

What about the “percent inhibition of PKK at 0.56 μM” value (human PKK mRNA [2]; [8]) of the same substance?
The value was 35%.

What about the “percent inhibition of PKK at 1.67 μM” value (human PKK mRNA [2]; [8]) of the same substance?
The value was 78%.

And the “percent inhibition of PKK at 5.00 μM” value (human PKK mRNA [2]; [8])?
Its value is 87%.

And the IC50 (human PKK mRNA [2]; 4 point dose response, HepaRG cells, Table 35)?
The IC50 was 500 nM.

And the “percent inhibition of PKK mRNA, 0.19 μM” value (human PKK mRNA [2]; HepaRG cells, 0.19 μM antisense oligonucleotide)?
The value was 5%.

What about the “percent inhibition of PKK mRNA, 0.56 μM” value (human PKK mRNA [2]; HepaRG cells, 0.56 μM antisense oligonucleotide) of the same substance?
Its value is 39%.

And the “percent inhibition of PKK mRNA, 1.67 μM” value (human PKK mRNA [2]; HepaRG cells, 1.67 μM antisense oligonucleotide)?
Its value is 82%.

And the “percent inhibition of PKK mRNA, 5.00 μM” value (human PKK mRNA [2]; HepaRG cells, 5.00 μM antisense oligonucleotide)?
Its value is 96%.

And the IC50 (human PKK mRNA [2]; HepaRG cells, 0.19-5.00 μM)?
The IC50 was 800 nM.

With “546304 (antisense e[5mC]*eT*eT*eT*eT*dA*dT*dT*dT*dG*dT*dG*dA*dG*dA*eA*eA*eG*eG*eT) [compound 546304]” as the substance, how does the “% inhibition” value (human PKK mRNA [1]; [9]) read?
The value was 94%.

And the “% inhibition” value (human PKK mRNA [1]; [10])?
The value was 86%.

And the “percent inhibition of PKK at 0.19 μM” value (human PKK mRNA [2]; [11])?
Its value is 0%.

What about the “percent inhibition of PKK at 0.56 μM” value (human PKK mRNA [2]; [11]) of the same substance?
Its value is 6%.

What about the “percent inhibition of PKK at 1.67 μM” value (human PKK mRNA [2]; [11]) of the same substance?
The value was 51%.

And the “percent inhibition of PKK at 5.00 μM” value (human PKK mRNA [2]; [11])?
Its value is 71%.

What about the IC50 (human PKK mRNA [2]; [12]) of the same substance?
The IC50 was 2100 nM.

How did the “% inhibition” value (human PKK mRNA [1]; [5]) turn out when “547618 (antisense eA*e[5mC]*eT*eG*eT*d[5mC]*d[5mC]*dT*dA*dT*dA*dT*d[5mC]*dA*d[5mC]*eT*eG*eT*eA*e[5mC]) [compound 547618]” was run?
The value was 87%.

And the “percent inhibition of PKK at 0.19 μM” value (human PKK mRNA [2]; [11])?
The value was 0%.

And the “percent inhibition of PKK at 0.56 μM” value (human PKK mRNA [2]; [11])?
Its value is 0%.

And the “percent inhibition of PKK at 1.67 μM” value (human PKK mRNA [2]; [11])?
The value was 73%.

And the “percent inhibition of PKK at 5.00 μM” value (human PKK mRNA [2]; [11])?
The value was 98%.

And the IC50 (human PKK mRNA [2]; [12])?
The IC50 was 1300 nM.

For “547366 (eG*eG*eA*eG*eT*dG*dA*dG*dA*dA*d[5mC]*d[5mC]*d[5mC]*dT*dG*eG*e[5mC]*eA*eA*e[5mC]; antisense) [compound 547366]”, which “% inhibition” value (human PKK mRNA [1]; Table 7, HepaRG cells, electroporation with 5,000 nM antisense oligonucleotide, approx. 24 hours, PKK mRNA by RT-PCR (RTS3454), relative to untreated control cells) is on record?
Its value is 86%.

And the “percent inhibition of PKK at 0.19 μM” value (human PKK mRNA [2]; [6])?
Its value is 0%.

And the “percent inhibition of PKK at 0.56 μM” value (human PKK mRNA [2]; [6])?
The value was 45%.

And the “percent inhibition of PKK at 1.67 μM” value (human PKK mRNA [2]; [6])?
Its value is 68%.

And the “percent inhibition of PKK at 5.00 μM” value (human PKK mRNA [2]; [6])?
Its value is 91%.

And the IC50 (human PKK mRNA [2]; [7])?
The IC50 was 1200 nM.

Which “% inhibition” value (human PKK mRNA [1]; [9]) does the source give for “547456 (antisense eG*e[5mC]*eG*eA*eT*dA*dT*d[5mC]*dA*dT*dG*dA*dT*dT*d[5mC]*e[5mC]*e[5mC]*eT*eT*e[5mC]) [compound 547456]” here?
The value was 89%.

And the “% inhibition” value (human PKK mRNA [1]; [10])?
The value was 96%.

What about the “percent inhibition of PKK at 0.19 μM” value (human PKK mRNA [2]; [3]) of the same substance?
Its value is 12%.

And the “percent inhibition of PKK at 0.56 μM” value (human PKK mRNA [2]; [3])?
Its value is 67%.

What about the “percent inhibition of PKK at 1.67 μM” value (human PKK mRNA [2]; [3]) of the same substance?
The value was 66%.

And the “percent inhibition of PKK at 5.00 μM” value (human PKK mRNA [2]; [3])?
Its value is 80%.

And the IC50 (human PKK mRNA [2]; [4])?
The IC50 was 1000 nM.
